Assay results: patent US4578400A, “Therapeutic composition and method for treatment of cardiovascular diseases” (priority 1982, dated 1986)

How the values were obtained:
[1] = test system: ventricular fibrillation after coronary artery ligation; test: Antiarrhythmic effects on myocardial infarction (coronary ligation); format: in vivo, dogs; settings: for Threshold level for inducing ventricular fibrillation, 30 min after ligation: before ligation = 100, control 41
Excerpt: Antiarrhythmic effects on myocardial infarction
The method described by Shinohara (Jap. Circul. J., 32, 1269-1281, 1968) was used. Dogs were divided into groups of 5 animals, anesthetized with intravenous pentobarbital and were thoracotomized under artificial respiration, and a platinum bipolar electrode was inserted on the wall of the right atrium. Then the sinus node was crushed and the animals were subjected to pacing (2.5 Hz, 3 msec, 3.5-8 V) with an electronic stimulator. The left anterior descending coronary artery was doubly ligated at a site 2 cm away from its origin (A. S. Harris, Circulation, 1, 1318, 1950). Then 5--HDA--Na and lidocaine were injected into the femoral vein of the respective dogs. Using an electrode inserted in an ischemic zone in the left ventricle, the animals were given 15 to 20 successive electrical shocks before the ligation and 30 minutes after the ligation and administration. The threshold level necessary for inducing ventricular fibrillation was determined for each group of animals and shown in Table 4, with the values before the ligation taken as 100.

[2] = target: T1, 3-hydroxy-3-methylglutaryl coenzyme A (HMG-Co A) reductase (Rattus norvegicus, UniProt P51639); test: Inhibition of HMG-CoA reductase activity; format: biochemical, rat (liver microsome); settings: read-out: IC30 (amount necessary for inhibiting the enzymatic activity by 30%)
T1 sequence (P51639 1-887): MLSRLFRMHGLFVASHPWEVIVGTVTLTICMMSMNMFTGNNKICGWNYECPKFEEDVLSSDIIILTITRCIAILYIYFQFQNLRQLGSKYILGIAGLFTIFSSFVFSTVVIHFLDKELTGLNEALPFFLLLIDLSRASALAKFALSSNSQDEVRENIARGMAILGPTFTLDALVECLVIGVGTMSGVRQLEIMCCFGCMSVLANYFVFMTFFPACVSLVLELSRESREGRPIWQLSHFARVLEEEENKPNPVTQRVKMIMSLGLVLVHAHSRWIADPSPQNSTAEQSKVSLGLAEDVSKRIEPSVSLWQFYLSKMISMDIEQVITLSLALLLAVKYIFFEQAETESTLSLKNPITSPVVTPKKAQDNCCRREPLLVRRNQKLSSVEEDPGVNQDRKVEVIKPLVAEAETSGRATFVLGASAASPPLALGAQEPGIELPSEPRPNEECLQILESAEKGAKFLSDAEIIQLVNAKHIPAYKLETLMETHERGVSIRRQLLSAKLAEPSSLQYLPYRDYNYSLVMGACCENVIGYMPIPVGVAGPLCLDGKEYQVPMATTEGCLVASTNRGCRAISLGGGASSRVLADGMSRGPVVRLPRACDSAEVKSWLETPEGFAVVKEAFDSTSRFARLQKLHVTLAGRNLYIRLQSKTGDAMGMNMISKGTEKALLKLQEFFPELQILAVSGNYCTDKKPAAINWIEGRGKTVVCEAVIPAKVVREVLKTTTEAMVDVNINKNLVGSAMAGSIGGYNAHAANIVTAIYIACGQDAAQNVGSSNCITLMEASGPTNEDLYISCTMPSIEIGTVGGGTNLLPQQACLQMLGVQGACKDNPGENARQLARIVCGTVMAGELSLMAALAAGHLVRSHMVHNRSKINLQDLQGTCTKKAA
Excerpt: Inhibition of the activity of 3-hydroxy-3-methylglutaryl coenzyme A (HMG-Co A) reductase

[3] = Lowering serum lipid levels in Triton-induced hyperlipidemic rats; format: in vivo, male Wistar rats
Protocol: After 10 hours, blood samples were drawn to determine the serum levels of total cholesterol and triglyceride.

[4] = Lowering serum cholesterol levels in hyperlipidemic rabbits; format: in vivo, male Japanese white rabbits; settings: 100 mg/kg oral daily for 7 days
Excerpt: Male Japanese white rabbits weighing about 2.5 kg were fed on a solid diet containing 1% cholesterol (RC-4, Nippon Crea Co., Ltd.) for 10 weeks until hypercholesterolemia fully developed. The rabbits were then divided into groups of 5 animals, and 5--HDA--Na or δ-DL was orally admininistered daily for 7 days, either as a solution or as an emulsion in 5% aqueous arabic gum. Three hours after the last administration, blood was drawn to determine the serum level of cholesterol.

[5] = test system: myocardial mitochondria; test: Inhibition of the decrease in respiratory capacity of myocardial mitochondria; format: biochemical, male Wistar rats; settings: for ATP production rate: normal 515, defective 204, *P < 0.05
Protocol: Inhibition of the decrease in respiratory capacity of myocardial mitochondria
According to the method of Hagiwara (Biochem. Biophys. Acta, 46, 134-142, 1961), mitochondria fractions were prepared from the myocardium isolated from male Wistar rats weighing about 300 g. The respiratory capacity of the mitochondria was measured by polarography with an oxygen electrode (TA-100, Yanagimoto), with sodium glutamate and ADP being successively added to give final concentrations of 50 mM and 4 mM, respectively. Defective mitochondria were prepared by leaviang the mitochondria fractions at 0° C. for 24 hours, and 5--HDA--Na was added to determine its ability to inhibit the decrease in the respiratory capacity of the myocardial mitochondria, which is proportional to the rate of ATP production.

[6] = Acute toxicity; settings: one week observation
Excerpt: Male ddy mice weighing about 25 g were divided into groups of 10 animals and orally administered once with 3 g/kg of 5--HDA, 5--HDA--Na, 5--HDAE, 5--HDA--DHP or δ-DL, or intraperitoneally injected once with 1 g/kg of said compounds.

[7] = Solubility (physicochemical properties, Table 1)
[8] = 100 mg/kg oral, four times, against control, 10 hours after Triton WR-1339, *P < 0.05

In the case of `CCCCCC(O)CCCC(=O)[O-].[Na+]` (centres unmarked), the “Threshold level for inducing ventricular fibrillation, 30 min after ligation” value (“Threshold level … after ligation” below) ([1]; 0.3 mg/kg i.v.) is reported as 67, the “Threshold level … after ligation” value ([1]; 1.0 mg/kg i.v., *P < 0.05) is reported as 70 and the “Threshold level … after ligation” value ([1]; 3.0 mg/kg i.v., *P < 0.05) is reported as 79. The “threshold level for inducing ventricular fibrillation (in words)” value ([1]; after coronary ligation, i.v.) was “increased in a dose-dependent manner”, the IC30 [2] was 100 µM and the “inhibition rate, total cholesterol (serum)” value [3, 8] was 20%. For the same compound, the “inhibition rate, triglyceride (serum)” value [3, 8] was 15%, the “antilipidemic effects compared with Clofibrate (in words)” value ([3]; 100 mg/kg, oral) was “equipotent to or stronger than the effect of the known anti-lipidemic agent, Clofibrate” and the “serum level of total cholesterol (in words)” value [4] was “lowered the serum level of total cholesterol”. For the same compound, the Total serum cholesterol ([4]; 3 h after last administration, control 1,394, *P < 0.05) was 1,165 mg/dl, the “decrease in ATP production in defective mitochondria (in words)” value ([5]; defective mitochondria) was “significantly inhibited” and the ATP production rate ([5]; defective mitochondria + 10^-4 M) was 265 mM/mg-protein/min. The ATP production rate ([5]; defective mitochondria + 10^-5 M) was 220 mM/mg-protein/min, the “acute toxicity: abnormality” value ([6]; 1 g/kg intraperitoneal once) was “no abnormality occurred” and the “acute toxicity: death” value ([6]; 1 g/kg intraperitoneal once) was “no animal died”. For the same compound, the “acute toxicity: abnormality” value ([6]; 3 g/kg oral once) was “no abnormality occurred”, the “acute toxicity: death” value ([6]; 3 g/kg oral once) was “no animal died” and the solubility in acetone ([7]; acetone) was “easily soluble”. For the same compound, the solubility in benzene ([7]; benzene) was “sparingly”, the solubility in chloroform ([7]; chloroform) was “sparingly” and the solubility in hexane ([7]; hexane) was “sparingly”. The solubility in methanol ([7]; methanol) was “easily soluble” and the solubility in water ([7]; water) was “easily soluble”.
